Results on eight compounds are retold here after PubChem BioAssay (NCI).

Where “and” joins values, the source holds several entries; their conditions need not be identical. Equal entries are not always repeated.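 Results reflect a 48-hour exposure of cells in 96-well plates to compound at five concentrations. The concentration for 50% growth inhibition is given as GI50. TGI is the concentration that stops growth completely.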 Some results are limits rather than exact numbers.

As usually defined, the TGI is the concentration giving total growth inhibition. A high value points to less potent growth arrest. A word on the GI50: it is the concentration at which growth is held to half of that of the control.

Some test systems named below: A549 NSCLC; SN12C renal; SF-295 CNS; EKVX NSCLC; NCI-H23 lung; HCC-2998 colon; BT-549 breast; MDA-MB-435; NCI-H522 lung; CAKI-1 renal; DU-145 prostate; SK-MEL-2 melanoma; HS 578T breast; UO-31 renal; MDA-MB-231 breast; KM12 colon; MALME-3M melanoma; LOX IMVI melanoma; SF-539 CNS.
Common to all, as to test: DTP human tumour cell line panel, 48 h

As for `CN(C)C(=C1c2cc([N+](=O)[O-])ccc2-c2ccc([N+](=O)[O-])cc21)N(C)C`, the TGI with A549 NSCLC, in the experiment with SN12C renal, with SF-295 CNS, with EKVX NSCLC, in the experiment on NCI-H23 lung and in the experiment on HCC-2998 colon was over 100 µM throughout. For the same compound, the TGI with BT-549 breast, in the experiment with MDA-MB-435, in the experiment on NCI-H522 lung, in the experiment with CAKI-1 renal, in the experiment with DU-145 prostate and in the experiment on SK-MEL-2 melanoma was over 100 µM each time. Further, the TGI with HS 578T breast, with UO-31 renal, with MDA-MB-231 breast, in the experiment with KM12 colon and with MALME-3M melanoma was over 100 µM in each case.

With `Cc1c2cnccc2nc2[nH]c3ccncc3c12`, the TGI is over 100 µM with A549 NSCLC; over 100 µM in the experiment with SN12C renal; 11.9 µM in the experiment with LOX IMVI melanoma; 52.5 µM in the experiment on SF-295 CNS; 96.9 µM with EKVX NSCLC; over 100 µM with SF-539 CNS. In addition, the TGI in the experiment on NCI-H23 lung was 6.9 µM; in the experiment on BT-549 breast, 63.8 µM; with MDA-MB-435, 27.6 µM; in the experiment with NCI-H522 lung, 18.5 µM; in the experiment on CAKI-1 renal, 24.9 µM; with DU-145 prostate, over 100 µM. In addition, the TGI is 27.6 µM in the experiment with SK-MEL-2 melanoma; over 100 µM in the experiment with HS 578T breast; 28.8 µM with UO-31 renal; over 100 µM with MDA-MB-231 breast; 41.8 µM with KM12 colon; 14.1 µM with MALME-3M melanoma.

Take `COc1ccc(/C=C(\NC(=O)c2ccccc2)C(=O)NN(C)c2ccnc3cc(Cl)ccc23)cc1OC`: the TGI in the experiment with A549 NSCLC is 97.1 µM; in the experiment on SN12C renal it was 66.9 µM; in the experiment on LOX IMVI melanoma it was 35.1 µM; with SF-295 CNS, 97.1 µM; in the experiment on EKVX NSCLC it was over 100 µM; in the experiment on SF-539 CNS, 46.5 µM. Besides, the TGI in the experiment with NCI-H23 lung was found to be 62.8 µM; in the experiment on BT-549 breast it was 39.5 µM; in the experiment with MDA-MB-435, 49.6 µM; in the experiment on NCI-H522 lung it was 44.1 µM; in the experiment with CAKI-1 renal it was 90.6 µM; in the experiment on DU-145 prostate, 66.3 µM. The TGI is 46 µM in the experiment on SK-MEL-2 melanoma; over 100 µM with HS 578T breast; 80.4 µM in the experiment with UO-31 renal; 60.3 µM in the experiment on MDA-MB-231 breast; 34.7 µM in the experiment with KM12 colon; 72.5 µM in the experiment on MALME-3M melanoma.

For the compound `Cn1c(COC(=O)NC2CCCCC2)c(COC(=O)NC2CCCCC2)c2ccc3cc(Cl)c(Cl)cc3c21`, the TGI in the experiment with A549 NSCLC is over 100 µM; in the experiment with SN12C renal it was 23.9 µM; in the experiment on LOX IMVI melanoma it was 30.6 µM; in the experiment with SF-295 CNS it was over 100 µM; in the experiment with EKVX NSCLC, over 100 µM; in the experiment with SF-539 CNS, 42.1 µM. The TGI with NCI-H23 lung came out at 40.5 µM; with HCC-2998 colon it was 26.6 µM; with BT-549 breast, 30.5 µM; in the experiment with MDA-MB-435, 49.4 µM; in the experiment with CAKI-1 renal it was 10.4 µM; in the experiment on DU-145 prostate, 84.7 µM. The TGI in the experiment on SK-MEL-2 melanoma was found to be 28.5 µM; in the experiment with HS 578T breast, 23.6 µM; with UO-31 renal, 66.7 µM; with MDA-MB-231 breast it was 22.1 µM; with KM12 colon it was 36.4 µM; with MALME-3M melanoma, 25.9 µM.

With `CCOC(=O)COc1ccc(/C=C/C(=O)c2ccc(OC)cc2)cc1`, the TGI is over 100 µM in the experiment with A549 NSCLC; 39.6 µM in the experiment with SN12C renal; 39.4 µM in the experiment with LOX IMVI melanoma; over 100 µM in the experiment with SF-295 CNS; over 100 µM in the experiment on EKVX NSCLC; 41.5 µM with SF-539 CNS. Besides, the TGI was 79.8 µM with NCI-H23 lung; 48.7 µM with HCC-2998 colon; over 100 µM in the experiment with BT-549 breast; 62.9 µM with MDA-MB-435; 73.6 µM with NCI-H522 lung; 76.8 µM in the experiment with DU-145 prostate. The TGI in the experiment with SK-MEL-2 melanoma was 85.8 µM; with HS 578T breast, over 100 µM; in the experiment on UO-31 renal it was 45.4 µM; with MDA-MB-231 breast it was 88.3 µM; in the experiment with KM12 colon, over 100 µM; with MALME-3M melanoma it was 92.7 µM.

In the case of `Nc1ccc(S(=O)(=O)c2ccc(NC(=O)c3cccnc3)cc2)cc1`, the TGI with A549 NSCLC, in the experiment with SN12C renal, with LOX IMVI melanoma, with SF-295 CNS, in the experiment with EKVX NSCLC and in the experiment with NCI-H23 lung was over 100 µM throughout. Further, the TGI with HCC-2998 colon, with BT-549 breast, in the experiment with MDA-MB-435, with NCI-H522 lung, with CAKI-1 renal and in the experiment on DU-145 prostate was over 100 µM each time. In addition, the TGI with HS 578T breast, in the experiment with UO-31 renal, in the experiment on MDA-MB-231 breast, with KM12 colon and in the experiment with MALME-3M melanoma was over 100 µM throughout.

Regarding `CN(/N=C/c1cccs1)c1ccc([N+](=O)[O-])cc1[N+](=O)[O-]`, the TGI in the experiment on A549 NSCLC, in the experiment with SN12C renal, in the experiment with SF-295 CNS, in the experiment with EKVX NSCLC, in the experiment with SF-539 CNS and in the experiment with NCI-H23 lung was over 100 µM each time. Further, the TGI in the experiment with HCC-2998 colon, in the experiment with BT-549 breast, with MDA-MB-435, with NCI-H522 lung, in the experiment on CAKI-1 renal and in the experiment on DU-145 prostate was over 100 µM throughout. In addition, the TGI with HS 578T breast, in the experiment with UO-31 renal, in the experiment on MDA-MB-231 breast and in the experiment with KM12 colon was over 100 µM each time.

For the compound `COc1ccc(-c2c(C#N)c(S)n(C3OC(CO)C(O)C(O)C3O)c(=O)c2C#N)cc1` (stereo unspecified), the TGI in the experiment on A549 NSCLC, with SN12C renal, in the experiment with LOX IMVI melanoma, in the experiment with SF-295 CNS, in the experiment with SF-539 CNS and with NCI-H23 lung was over 100 µM each time. For the same compound, the TGI in the experiment on HCC-2998 colon, in the experiment on BT-549 breast, in the experiment on MDA-MB-435, with NCI-H522 lung, with CAKI-1 renal and in the experiment with DU-145 prostate was over 100 µM throughout. Moreover, the concentration for total growth inhibition (TGI) in the experiment on SK-MEL-2 melanoma, in the experiment on HS 578T breast, in the experiment on UO-31 renal, in the experiment with MDA-MB-231 breast, with KM12 colon and with MALME-3M melanoma was over 100 µM throughout. Moreover, in the experiment on HS 578T breast, the GI50 was 37.3 µM and > 100 µM.
